The record followed here is patent publication US9187472B2 (AbbVie Inc., priority 2012, dated 2015).

One experiment has as its target NAMPT (Homo sapiens, UniProt P43490). The experiment in a line: TR-FRET Binding Assay of NAMPT with PRPP. Particulars: with 200 μM PRPP and 2.5 mM ATP; 2 nM NAMPT, 2 nM probe, 16 hours equilibration. In outline: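 Human NAMPT (2 nM) with 2 nM probe and 1 nM Tb-anti-His antibody, plus 200 μM PRPP and 2.5 mM ATP, 2% DMSO. TR-FRET read after 16 h equilibration, permitting possible enzymatic modification of test compounds; data processing as for the substrate-free format.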
For orientation: TR-FRET usually uses a lanthanide donor and a delayed reading to cut background.

Experiment [1] addresses NAMPT (human, recombinant, C-terminally His-tagged) (Homo sapiens, UniProt P43490). The experiment in a line: Time-Resolved Fluorescence Resonance Energy Transfer (TR-FRET) Binding Assay of NAMPT. As to conditions: without substrates; 6.8 nM NAMPT, 200 nM probe, 3 hours equilibration. The procedure, abridged: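 A TR-FRET probe-displacement assay used 6.8 nM His-tagged recombinant human NAMPT, 200 nM Oregon Green 488-labelled nicotinamide-competitive probe and 1 nM Tb-anti-His antibody. Buffer was HEPES pH 7.5 with NaCl, MgCl2, DTT and glycerol, plus 2% DMSO, equilibrated 3 h at room temperature. Em520/Em495 ratios, normalized to controls, gave IC50 by four-parameter logistic fit.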

For the next experiment, the system named is PC3 cells. The experiment in a line: NAMPT Cell Proliferation Assay. The format is cell-based. As to conditions: Homo sapiens, PC-3, 120 h, 5 days incubation, cell viability by Cell Titer Glo. The procedure, abridged: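 Cell Titer Glo viability after 5-day exposure (37° C, 5% CO2); PC3, 500 cells/well, RPMI + 10% heat-inactivated FBS, overnight attachment before dosing. Dose range 10 μM to 1×10^−5 μM, 10-fold steps. IC50 = sigmoidal fit of % inhibition.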

Each structure is given as a SMILES string.

NAMPT, sequence (P43490 whole entry): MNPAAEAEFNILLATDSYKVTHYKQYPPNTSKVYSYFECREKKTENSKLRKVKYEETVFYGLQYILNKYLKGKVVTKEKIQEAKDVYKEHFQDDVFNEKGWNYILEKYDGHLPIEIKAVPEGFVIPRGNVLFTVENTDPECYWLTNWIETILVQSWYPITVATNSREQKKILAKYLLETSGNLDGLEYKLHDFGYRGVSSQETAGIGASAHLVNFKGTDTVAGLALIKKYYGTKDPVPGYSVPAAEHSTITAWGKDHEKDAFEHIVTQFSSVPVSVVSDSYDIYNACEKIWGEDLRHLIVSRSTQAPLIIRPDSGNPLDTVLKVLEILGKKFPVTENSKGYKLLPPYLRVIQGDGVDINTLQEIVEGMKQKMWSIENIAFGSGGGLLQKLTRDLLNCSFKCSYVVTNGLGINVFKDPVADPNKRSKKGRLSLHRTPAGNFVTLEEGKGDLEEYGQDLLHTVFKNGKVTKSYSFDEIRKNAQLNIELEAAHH
NAMPT (human, recombinant, C-terminally His-tagged), sequence (P43490 whole entry): as above

Regarding `O=C(CC1CCCC1)Nc1ccc(C(=O)NCc2ccn3ccnc3c2)c(F)c1` [Example 463, 4-[(cyclopentylacetyl)amino]-2-fluoro-N-(imidazo[1,2-a]pyridin-7-ylmethyl)benzamide], the results for the IC50 (on NAMPT; in experiment [1]; in the experiment with PC3 cells) were 0.529 nM, 314 nM and 234 nM, respectively.
Taken in the same sequence, the figures for `O=C(NCc1ccc2nccn2c1)c1ccc(OC2CCN(C(=O)[C@@H]3CCCO3)CC2)cc1` [Example 164, N-(imidazo[1,2-a]pyridin-6-ylmethyl)-4-({1-[(2S)-tetrahydrofuran-2-ylcarbonyl]piperidin-4-yl}oxy)benzamide] were 3.46 nM, 2460 nM and 101 nM.
Take `O=C(NCc1ccn2ccnc2c1)c1ccc(O[C@H]2CCN(C(=O)[C@H]3CCOC3)C2)cc1` [Example 346, N-(imidazo[1,2-a]pyridin-7-ylmethyl)-4-({(3S)-1-[(3S)-tetrahydrofuran-3-ylcarbonyl]pyrrolidin-3-yl}oxy)benzamide]: the IC50 at NAMPT is 0.548 nM; in experiment [1] it was 3110 nM; in the experiment on PC3 cells, 7020 nM.
Regarding `COCC(=O)N1CCC(c2ccc(C(=O)NCc3ccn4ccnc4c3)s2)CC1` [Example 257, N-(imidazo[1,2-a]pyridin-7-ylmethyl)-5-[1-(methoxyacetyl)piperidin-4-yl]thiophene-2-carboxamide], the IC50 was found to be 0.344 nM on NAMPT, 101 nM in experiment [1] and 15.2 nM with PC3 cells.
Taken in the same sequence, the figures for `CC(C)CC(=O)N1CCC(O)(c2ccc(C(=O)NCc3ccn4ccnc4c3)s2)CC1` [Example 553, 5-[4-hydroxy-1-(3-methylbutanoyl)piperidin-4-yl]-N-(imidazo[1,2-a]pyridin-7-ylmethyl)thiophene-2-carboxamide] were 0.592 nM, 478 nM and 103 nM.
Take `CC(C)C(=O)N1CCC(c2ccc(NC(=O)Nc3ccc4nccn4c3)cc2)CC1` [Example 106, 1-imidazo[1,2-a]pyridin-6-yl-3-{4-[1-(2-methylpropanoyl)piperidin-4-yl]phenyl}urea]: the IC50 on NAMPT was 0.201 nM; in experiment [1], 247 nM; in the experiment with PC3 cells, 78.7 nM.
Taken in the same sequence, the figures for `O=C(Nc1ccc(C(=O)NCCc2ccccc2)cc1)Nc1ccc2nccn2c1` [Example 4, 4-[(imidazo[1,2-a]pyridin-6-ylcarbamoyl)amino]-N-(2-phenylethyl)benzamide] were 0.516 nM, 413 nM and 935 nM.
Taken in the same sequence, the figures for `CC(C)C(=O)N1CCC(c2ccc(C(=O)NCc3ccn4ccnc4c3)cc2)CC1` [Example 239, N-(imidazo[1,2-a]pyridin-7-ylmethyl)-4-[1-(2-methylpropanoyl)piperidin-4-yl]benzamide] were 0.771 nM, 308 nM and 17.7 nM.
Consider `CCS(=O)(=O)N1CC(c2ccc(C(=O)NCc3ccn4ccnc4c3)cc2)C1` [Example 567, 4-[1-(ethylsulfonyl)azetidin-3-yl]-N-(imidazo[1,2-a]pyridin-7-ylmethyl)benzamide], for which the IC50 at NAMPT stood at 1.11 nM; in experiment [1], 403 nM; in the experiment on PC3 cells, 237 nM.
Taken in the same sequence, the figures for `CC(C)(C)OC(=O)N1CCC(c2ccc(C(=O)NCc3ccn4ccnc4c3)cc2)C1` (stereo not drawn) [Example 301, tert-butyl 3-{4-[(imidazo[1,2-a]pyridin-7-ylmethyl)carbamoyl]phenyl}pyrrolidine-1-carboxylate] were 0.301 nM, 288 nM and 25.8 nM.
On the same counts, the results for `O=C(NCc1ccn2ccnc2c1)c1ccc(C2CN(C(=O)c3cccc(OC(F)(F)F)c3)C2)cc1` [Example 669, N-(imidazo[1,2-a]pyridin-7-ylmethyl)-4-{1-[3-(trifluoromethoxy)benzoyl]azetidin-3-yl}benzamide] are 0.807 nM, 407 nM and 686 nM.
On to `O=C(NCc1ccn2ccnc2c1)Nc1ccc(O[C@@H]2CCN(C(=O)C3CC3)C2)cc1` [Example 331, 1-(4-{[(3R)-1-(cyclopropylcarbonyl)pyrrolidin-3-yl]oxy}phenyl)-3-(imidazo[1,2-a]pyridin-7-ylmethyl)urea], for which the IC50 at NAMPT was determined as 0.416 nM; in experiment [1], 383 nM; in the experiment on PC3 cells it was 227 nM.
`CC1(Cn2cc(-c3ccc(C(=O)NCc4ccc5ncnn5c4)s3)cn2)CCOCC1` [Example 622, 5-{1-[(4-methyltetrahydro-2H-pyran-4-yl)methyl]-1H-pyrazol-4-yl}-N-([1,2,4]triazolo[1,5-a]pyridin-6-ylmethyl)thiophene-2-carboxamide]: the half-inhibitory concentration (IC50) at NAMPT was found to be 2.36 nM; in experiment [1], 29.4 nM; in the experiment with PC3 cells, 7.06 nM.
As for `CC(C)(CO)NC(=O)c1ccc(NC(=O)Nc2ccc3nccn3c2)cc1` [Example 6, N-(1-hydroxy-2-methylpropan-2-yl)-4-[(imidazo[1,2-a]pyridin-6-ylcarbamoyl)amino]benzamide], the values for the IC50 (on NAMPT; in experiment [1]; in the experiment with PC3 cells) were 0.964 nM, 2910 nM and 6650 nM, respectively.
Consider `O=C(NCc1ccn2ccnc2c1)c1ccc(C2CCN(C(=O)C3CCCCC3)C2)cc1` (stereo not drawn) [Example 610, 4-[1-(cyclohexylcarbonyl)pyrrolidin-3-yl]-N-(imidazo[1,2-a]pyridin-7-ylmethyl)benzamide], for which the IC50 at NAMPT was found to be 0.762 nM; in experiment [1] it was 751 nM; in the experiment on PC3 cells, 74.4 nM.
Taken in the same sequence, the figures for `O=C(NCc1ccn2ccnc2c1)c1ccc(C2CCN(C(=O)C3CC3)CC2)s1` [Example 260, 5-[1-(cyclopropylcarbonyl)piperidin-4-yl]-N-(imidazo[1,2-a]pyridin-7-ylmethyl)thiophene-2-carboxamide] were 0.351 nM, 46.5 nM and 8.06 nM.
On to `O=C(Nc1ccc(C2CCN(C(=O)c3ccccc3)CC2)cc1)Nc1ccc2nccn2c1` [Example 112, 1-[4-(1-benzoylpiperidin-4-yl)phenyl]-3-imidazo[1,2-a]pyridin-6-ylurea], for which the IC50 on NAMPT stood at 0.169 nM; in experiment [1], 46.5 nM; in the experiment with PC3 cells it was 6.96 nM.
On the same counts, the results for `O=C(NCc1ccc2nccn2c1)c1ccc(-c2cnn(CC3CCOC3)c2)s1` (stereo not drawn) [Example 200, N-(imidazo[1,2-a]pyridin-6-ylmethyl)-5-[1-(tetrahydrofuran-3-ylmethyl)-1H-pyrazol-4-yl]thiophene-2-carboxamide] are 0.482 nM, 63 nM and 5.72 nM.
On the same counts, the results for `O=C(NCc1ccn2ccnc2c1)c1cnc(N2C(=O)CC[C@H]2CO)s1` [Example 244, 2-[(2S)-2-(hydroxymethyl)-5-oxopyrrolidin-1-yl]-N-(imidazo[1,2-a]pyridin-7-ylmethyl)-1,3-thiazole-5-carboxamide] are 1.69 nM, over 10000 nM and 7040 nM.
Taken in the same sequence, the figures for `CC(C)(C)OC(=O)N1CC(c2ccc(C(=O)NCc3ccn4ccnc4c3)cc2)C1` [Example 402, tert-butyl 3-{4-[(imidazo[1,2-a]pyridin-7-ylmethyl)carbamoyl]phenyl}azetidine-1-carboxylate] were 0.327 nM, 54.8 nM and 6.71 nM.
Turning to `Cn1cc(C(=O)N2CCC(c3ccc(C(=O)NCc4ccn5ccnc5c4)cc3)CC2)cn1` [Example 517, N-(imidazo[1,2-a]pyridin-7-ylmethyl)-4-{1-[(1-methyl-1H-pyrazol-4-yl)carbonyl]piperidin-4-yl}benzamide], the IC50 on NAMPT was 0.264 nM; in experiment [1], 330 nM; in the experiment on PC3 cells it was 72.2 nM.
On the same counts, the results for `O=C(NCc1ccn2ccnc2c1)c1ccc(C2CCN(C(=O)CCC(F)(F)F)CC2)s1` [Example 574, N-(imidazo[1,2-a]pyridin-7-ylmethyl)-5-[1-(4,4,4-trifluorobutanoyl)piperidin-4-yl]thiophene-2-carboxamide] are 0.505 nM, 97.5 nM and 5.2 nM.
Consider `O=C(NCc1ccn2ccnc2c1)c1cnc(N(C[C@H]2CCCO2)C(=O)Cc2ccon2)s1` [Example 192, N-(imidazo[1,2-a]pyridin-7-ylmethyl)-2-{(1,2-oxazol-3-ylacetyl)[(2R)-tetrahydrofuran-2-ylmethyl]amino}-1,3-thiazole-5-carboxamide], for which the figures for the half-inhibitory concentration (IC50) (at NAMPT; in experiment [1]; in the experiment with PC3 cells) were 0.242 nM, 238 nM and 1.85 nM, respectively.
Regarding `CCCC(=O)Nc1ccc(NC(=O)Nc2ccc3nccn3c2)cc1` [Example 44], the IC50 on NAMPT is 0.496 nM; in experiment [1], 396 nM; in the experiment with PC3 cells, 1580 nM.
Taken in the same sequence, the figures for `CC(C)(C(=O)N1CCC(c2ccc(C(=O)NCc3ccn4ccnc4c3)cc2)C1)c1ccccc1` (stereo not drawn) [Example 732, N-(imidazo[1,2-a]pyridin-7-ylmethyl)-4-[1-(2-methyl-2-phenylpropanoyl)pyrrolidin-3-yl]benzamide] were 0.471 nM, 21.3 nM and 5.9 nM.
Taken in the same sequence, the figures for `CC(C)CC(=O)N1CCC(c2ccc(C(=O)NCc3cn4ccnc4cn3)cc2)CC1` [Example 816, N-(imidazo[1,2-a]pyrazin-6-ylmethyl)-4-[1-(3-methylbutanoyl)piperidin-4-yl]benzamide] were 1.58 nM, 46.1 nM and 4.82 nM.

The IC50 is the concentration needed to halve the response being measured.
